The record followed here is article PMC5122889, “Sigma-1 Receptor Agonism Promotes Mechanical Allodynia After Priming the Nociceptive System with Capsaicin” (Scientific Reports, 2016).

SMILES strings stand for the structures. Counter-ions that a name gives are not always drawn. Like-named read-outs stand apart in the source and are kept apart here.

Data set [1] can be described thus: in vitro. Also on record: metabolic stability in human liver microsomes with NADPH-regenerating system, parent compound by UHPLC-MS/MS. To be noted: human liver microsomes. As to the method: (§1) Incubation of the test compounds in mouse or human liver microsomes (Xenotech, Lenexa, KS, USA) was done with a previously described method[55] with modifications. We tested the metabolic stability of PRE-084 and PGB, the latter of which was used as a control because of its poor hepatic metabolism. Briefly, the drugs were incubated in 96-well plates at a concentration of 1 μM and at 37 °C during 1 h under standard incubation conditions: sodium-potassium phosphate buffer (50 mM, pH 7.4), MgCl2 (3 mM), the NADPH-regenerating system and cytochrome P450 content (0.3 nmol/mL). Aliquots of the reaction mixture were obtained at 0, 10, 20, 40 and 60 min with an equal volume of cold acetonitrile. The assay was done in a robotic [compound left out] handling system (Freedom Evo Tecan, Männedorf, Switzerland). Upon centrifugation of the resulting mixture, supernatants were analyzed with a generic ultra-high performance [compound left out] chromatography–tandem mass spectrometry method. For the in vitro metabolic stability in liver microsomes, Ln-linear plots of the percentage of compound remaining based on chromatographic peak area versus time were generated, and the slope was calculated by linear fitting of the curve. The in vitro metabolic t1/2 was estimated with the equation 0.693/k where k is the biotransformation rate constant and corresponds to the slope of the ln-linear curve. Liver microsome Cl int was calculated with the equation [drawing 1]

A further data set concerns the target T1, sigma-1 receptor (Mus musculus, UniProt O55242).
T1 construct: gene Sigmar1; native receptor in wild-type mouse brain crude synaptosomal membranes (P2 fraction)
In words: [3H](+)-pentazocine competition radioligand binding in mouse brain membranes.

Data set [2] can be described thus: in vitro. Also on record: metabolic stability in mouse liver microsomes with NADPH-regenerating system, parent compound by UHPLC-MS/MS. The following applies: mouse liver microsomes. As to the method: as §1
A short description of data set [3]: in vitro. Also on record: metabolic stability in liver microsomes with NADPH, UHPLC-MS/MS quantitation of parent compound. To be noted: for remaining at 1 h, 1 µM: pH 7.4, liver microsomes, read-out: % parent compound remaining at 1 h; for half-life at 1 µM / microsomal CLint at 1 µM: pH 7.4, liver microsomes; for microsomal CLint at 1 µM: read-out: Cl int (µL/min/mg protein). As to the method:
as §1
(In general: Microsomes from liver hold many membrane-bound enzymes, among them those of drug oxidation.)

T1 sequence (O55242 whole entry): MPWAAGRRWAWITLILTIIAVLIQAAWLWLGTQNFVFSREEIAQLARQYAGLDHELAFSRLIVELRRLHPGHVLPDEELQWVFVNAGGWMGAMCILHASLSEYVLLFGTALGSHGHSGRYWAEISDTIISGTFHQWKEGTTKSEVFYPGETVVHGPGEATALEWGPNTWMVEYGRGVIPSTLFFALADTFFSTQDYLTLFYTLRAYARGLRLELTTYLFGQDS

Consider `O=C(OCCN1CCOCC1)C1(c2ccccc2)CCCCC1` [PRE, 2-(4-morpholinethyl)1-phenylcyclohexanecarboxylate) hydrochloride], for which the amount remaining at 1 h, 1 µM is 4 ± 0.58% in “in vitro [1]” (pH 7.4, liver microsomes, read-out: % parent compound remaining at 1 h (human)) and 0% in “in vitro [2]” (pH 7.4, liver microsomes, read-out: % parent compound remaining at 1 h (mouse)). Also, the microsomal CLint at 1 µM in “in vitro [1]” (pH 7.4, liver microsomes, read-out: Cl int (human)) stood at 103 ± 5 µL/min/mg; in “in vitro [2]” (pH 7.4, liver microsomes, read-out: Cl int (mouse)), 949 ± 203 µL/min/mg. Moreover, the half-life at 1 µM in “in vitro [1]” (pH 7.4, liver microsomes, read-out: t1/2 (human)) was 0.217 ± 0.00967 h; in “in vitro [2]” (pH 7.4, liver microsomes, read-out: t1/2 (mouse)), 3 ± 0.67 min. For the same compound, the IC50 at sigma-1 receptor was found to be 188 ± 18.8 nM.
As for `CC(C)C[C@H](CN)CC(=O)O` [Pregabalin], in the data set “in vitro [3]” (human liver microsomes), the amount remaining at 1 h, 1 µM is 95 ± 2.96%; the half-life at 1 µM came to 17.9 ± 10.8 h; the microsomal CLint at 1 µM is 2.3 ± 0.94 µL/min/mg. Further, in “in vitro [3]” (mouse liver microsomes), the amount remaining at 1 h, 1 µM is 97 ± 2.67%; the half-life at 1 µM was determined as 10 ± 3.03 h; the microsomal CLint at 1 µM is 4.5 ± 1.2 µL/min/mg.

Usually amount remaining stands for what is left of the initial amount, in per cent. A word on the IC50: it is the concentration that inhibits the measured activity by half.
